# According to patent US10894085B2, “System for thermotherapy treatment or prevention of antimicrobial resistant or biofilm infections” (FUNDACIÓ HOSPITAL UNIVERSITARI VALL D'HEBRON—INSTITUT DE …, priority 2016, dated 2021):
# Like-named read-outs stand apart in the source and are kept apart here.
# Tests used:
# Type in all cases: cell-based
# [1] = test system: Klebsiella pneumoniae strains; assay: Antibiotic susceptibility (CLSI category) of K. pneumoniae clinical isolates; on Antibiotic susceptibility and clinical category (CLSI breakpoint): key: S, susceptible; R, resistant; I, intermediate
# [2] = test system: Pseudomonas aeruginosa strains; assay: Susceptibility (MIC, CLSI category) of P. aeruginosa clinical isolates; on clinical category (CLSI breakpoint): key: S, susceptible; R, resistant; I, intermediate
# [3] = test system: Acinetobacter baumannii isogenic strains; assay: microbe, parasite or virus in culture; details: for MIC: Acinetobacter baumannii
# P. aeruginosa = assay: MIC by broth microdilution (Table 4), P. aeruginosa
# Procedure: (§1) The minimum inhibitory concentration (MIC) values were determined by broth microdilution method according to “Methods for Dilution Antimicrobial Susceptibility Tests for Bacteria That Grow Aerobically: Approved Standard M7-A7. CLSI, Wayne, Pa., USA, 2006” Colistin and amikacin free drugs were evaluated to compare the efficacy of nanoparticles. MIC was evaluated in Pa46, Pa1016, Kp1, Kp4, Abl4, Ab4256, MRSA 15, MRSA 16, SE14 an SE94 strains. ATCC P. aeruginosa 27853, ATCC E. coli 25922 and ATCC A. baumannii 19606 were used as quality control.
# K. pneumoniea = assay: MIC by broth microdilution (Table 4), K. pneumoniae
# Procedure: as §1
# A. baumannii = assay: MIC by broth microdilution (Table 4), A. baumannii
# Procedure: as §1
# [4] = test system: methicillin-resistant S. aureus; assay: MIC by broth microdilution (Table 4), MRSA
# Procedure: as §1
# S. epidermidis = assay: MIC by broth microdilution (Table 4), S. epidermidis
# Procedure: as §1
# [5] = strain Kp1 (XDR, CTX-M, OXA-48)
# [6] = Pseudomonas aeruginosa, strain Pa46 (ST111, XDR, VIM-2), read-out: MIC
# [7] = Pseudomonas aeruginosa, strain Pa54 (ST111, XDR, VIM-2), read-out: MIC
# [8] = Pseudomonas aeruginosa, strain Pa1016 (ST175, XDR), read-out: MIC
# [9] = read-out: MIC values, strain Abl4 (ST2)
# [10] = read-out: MIC values, strain Abl1 (ST103)
# [11] = read-out: MIC values, strain Abl4256 (ST38)
compound,measurement,setting,value
"CC1(C)S[C@@H]2[C@H](NC(=O)[C@H](N)c3ccccc3)C(=O)N2[C@H]1C(=O)O [AMP, ampicillin]",Antibiotic susceptibility and clinical category (CLSI breakpoint),[1]; [5],R
same,Antibiotic susceptibility and clinical category (CLSI breakpoint),"[1]; strain Kp2 (XDR, CTX-M, NDM)",R
same,Antibiotic susceptibility and clinical category (CLSI breakpoint),"[1]; strain Kp3 (XDR, KPC)",R
same,Antibiotic susceptibility and clinical category (CLSI breakpoint),"[1]; strain Kp4 (XDR, AmpC)",R
"C[C@H]1[C@H](NC(=O)/C(=N\OC(C)(C)C(=O)O)c2csc(N)n2)C(=O)N1S(=O)(=O)O [ATM, aztreonam]",MIC,[2]; [6],16 µg/mL
same,MIC,[2]; [7],32 µg/mL
same,MIC,[2]; [8],32 µg/mL
"NCC[C@H](O)C(=O)N[C@@H]1C[C@H](N)[C@@H](O[C@H]2O[C@H](CN)[C@@H](O)[C@H](O)[C@H]2O)[C@H](O)[C@H]1O[C@H]1O[C@H](CO)[C@@H](O)[C@H](N)[C@H]1O [Amikacin, amikacin]",MIC,[2]; [6],16 µg/mL
same,MIC,[2]; [7],16 µg/mL
same,MIC,[2]; [8],2 µg/mL
same,clinical category (CLSI breakpoint),[2]; strain Pa46,S
same,susceptibility,[2]; strain Pa46,susceptible
same,clinical category (CLSI breakpoint),[2]; strain Pa54,S
same,susceptibility,[2]; strain Pa54,susceptible
same,clinical category (CLSI breakpoint),[2]; strain Pa1016,S
same,susceptibility,[2]; strain Pa1016,susceptible
same,susceptibility,[1]; strain Kp1,susceptible
same,Antibiotic susceptibility and clinical category (CLSI breakpoint),[1]; [5],S
same,Antibiotic susceptibility and clinical category (CLSI breakpoint),"[1]; strain Kp2 (XDR, CTX-M, NDM)",R
same,Antibiotic susceptibility and clinical category (CLSI breakpoint),"[1]; strain Kp3 (XDR, KPC)",R
same,susceptibility,[1]; strain Kp4,susceptible
same,Antibiotic susceptibility and clinical category (CLSI breakpoint),"[1]; strain Kp4 (XDR, AmpC)",S
same,MIC,[3]; [9],≤ 2 µg/mL
same,susceptibility,[3]; strain Abl4 (ST2),susceptible
same,MIC,"P. aeruginosa; Pseudomonas aeruginosa, strain Pa46, read-out: MIC",8 µg/mL
same,MIC,"P. aeruginosa; Pseudomonas aeruginosa, strain Pa1016, read-out: MIC",0.5 µg/mL
same,MIC,"K. pneumoniea; Klebsiella pneumoniae, strain Kp1, read-out: MIC",2 µg/mL
same,MIC,"K. pneumoniea; Klebsiella pneumoniae, strain Kp4, read-out: MIC",1 to 2 µg/mL
same,MIC,"A. baumannii; Acinetobacter baumannii, strain Ab4256, read-out: MIC",8 µg/mL
same,MIC,"A. baumannii; Acinetobacter baumannii, strain Abl4, read-out: MIC",1 µg/mL
same,MIC,"[4]; Staphylococcus aureus, strain MRSA15, read-out: MIC",8 to 16 µg/mL
same,MIC,[4]; strain MRSA16,8 to 16 µg/mL
same,MIC,"S. epidermidis; Staphylococcus epidermidis, strain SE14, read-out: MIC",1 to 2 µg/mL
same,MIC,"S. epidermidis; Staphylococcus epidermidis, strain SE94, read-out: MIC",1 µg/mL
"CC(C)(O/N=C(\C(=O)N[C@@H]1C(=O)N2C(C(=O)[O-])=C(C[n+]3ccccc3)CS[C@H]12)c1csc(N)n1)C(=O)O [CAZ, ceftazidime]",Antibiotic susceptibility and clinical category (CLSI breakpoint),[1]; [5],R
same,Antibiotic susceptibility and clinical category (CLSI breakpoint),"[1]; strain Kp2 (XDR, CTX-M, NDM)",R
same,Antibiotic susceptibility and clinical category (CLSI breakpoint),"[1]; strain Kp3 (XDR, KPC)",R
same,Antibiotic susceptibility and clinical category (CLSI breakpoint),"[1]; strain Kp4 (XDR, AmpC)",R
same,MIC,[3]; [10],≥ 64 µg/mL
same,MIC,[3]; [9],≥ 64 µg/mL
same,MIC,[3]; [11],< 8 µg/mL
"CO/N=C(\C(=O)N[C@@H]1C(=O)N2C(C(=O)[O-])=C(C[N+]3(C)CCCC3)CS[C@H]12)c1csc(N)n1 [FEP, cefepime]",Antibiotic susceptibility and clinical category (CLSI breakpoint),[1]; [5],R
same,Antibiotic susceptibility and clinical category (CLSI breakpoint),"[1]; strain Kp2 (XDR, CTX-M, NDM)",R
same,Antibiotic susceptibility and clinical category (CLSI breakpoint),"[1]; strain Kp3 (XDR, KPC)",R
same,Antibiotic susceptibility and clinical category (CLSI breakpoint),"[1]; strain Kp4 (XDR, AmpC)",R
same,MIC,[3]; [10],≥ 64 µg/mL
same,MIC,[3]; [9],≥ 64 µg/mL
same,MIC,[3]; [11],16 µg/mL
"C[C@@H]1O[C@@H]1P(=O)(O)O [FOS, fosfomycin]",susceptibility,[1]; strain Kp1,susceptible
same,Antibiotic susceptibility and clinical category (CLSI breakpoint),[1]; [5],S
same,susceptibility,[1]; strain Kp2,susceptible
same,Antibiotic susceptibility and clinical category (CLSI breakpoint),"[1]; strain Kp2 (XDR, CTX-M, NDM)",S
same,Antibiotic susceptibility and clinical category (CLSI breakpoint),"[1]; strain Kp3 (XDR, KPC)",R
same,Antibiotic susceptibility and clinical category (CLSI breakpoint),"[1]; strain Kp4 (XDR, AmpC)",R
"C[C@@H](O)[C@H]1C(=O)N2C(C(=O)O)=C(SCCN=CN)C[C@H]12 [IMP, imipenem]",MIC,[2]; [6],256 µg/mL
same,MIC,[2]; [7],256 µg/mL
same,MIC,[2]; [8],16 µg/mL
same,Antibiotic susceptibility and clinical category (CLSI breakpoint),[1]; [5],R
same,Antibiotic susceptibility and clinical category (CLSI breakpoint),"[1]; strain Kp2 (XDR, CTX-M, NDM)",R
same,Antibiotic susceptibility and clinical category (CLSI breakpoint),"[1]; strain Kp3 (XDR, KPC)",R
same,Antibiotic susceptibility and clinical category (CLSI breakpoint),"[1]; strain Kp4 (XDR, AmpC)",R
same,MIC,[3]; [10],≥ 16 µg/mL
same,MIC,[3]; [9],≥ 16 µg/mL
same,MIC,[3]; [11],64 µg/mL
"C[C@H]1COc2c(N3CCN(C)CC3)c(F)cc3c(=O)c(C(=O)O)cn1c23 [LVX, levofloxacin]",MIC,[2]; [6],32 µg/mL
same,MIC,[2]; [7],32 µg/mL
same,MIC,[2]; [8],128 µg/mL
same,clinical category (CLSI breakpoint),[2]; strain Pa46,R
same,clinical category (CLSI breakpoint),[2]; strain Pa54,R
same,clinical category (CLSI breakpoint),[2]; strain Pa1016,R
same,MIC,[3]; [10],4 µg/mL
same,MIC,[3]; [9],4 µg/mL
same,MIC,[3]; [11],≤ 1 µg/mL
"C[C@@H](O)[C@H]1C(=O)N2C(C(=O)O)=C(S[C@@H]3CN[C@H](C(=O)N(C)C)C3)[C@H](C)[C@H]12 [MEM, meropenem]",Antibiotic susceptibility and clinical category (CLSI breakpoint),[1]; [5],R
same,Antibiotic susceptibility and clinical category (CLSI breakpoint),"[1]; strain Kp2 (XDR, CTX-M, NDM)",R
same,Antibiotic susceptibility and clinical category (CLSI breakpoint),"[1]; strain Kp3 (XDR, KPC)",R
same,Antibiotic susceptibility and clinical category (CLSI breakpoint),"[1]; strain Kp4 (XDR, AmpC)",R
same,MIC,[3]; [10],≥ 16 µg/mL
same,MIC,[3]; [9],≥ 16 µg/mL
same,MIC,[3]; [11],> 16 µg/mL
CCN1CCN(C(=O)N[C@@H](C(=O)N[C@@H]2C(=O)N3[C@@H]2SC(C)(C)[C@@H]3C(=O)O)c2ccccc2)C(=O)C1=O [PIP],MIC values,[3]; strain Abl1 (ST103),>=128 mg/L
same,MIC values,[3]; strain Abl4 (ST2),>=128 mg/L
same,MIC values,[3]; strain Abl4256 (ST38),>64 µg/mL
"CN(C)c1cc(NC(=O)CNC(C)(C)C)c(O)c2c1C[C@H]1C[C@H]3[C@H](N(C)C)C(O)=C(C(N)=O)C(=O)[C@@]3(O)C(O)=C1C2=O [TIG, tigecycline]",MIC,[3]; [10],2 µg/mL
same,MIC,[3]; [9],4 µg/mL
same,MIC,[3]; [11],0.5 µg/mL
same,susceptibility,[3]; strain AbII (ST103),susceptible
same,susceptibility,[3]; strain Abl4 (ST2),susceptible
"NC[C@H]1O[C@H](O[C@H]2[C@H](O)[C@@H](O[C@H]3O[C@H](CO)[C@@H](O)[C@H](N)[C@H]3O)[C@H](N)C[C@@H]2N)[C@H](N)C[C@@H]1O [TOB, tobramycin]",MIC,[2]; [6],64 µg/mL
same,MIC,[2]; [7],128 µg/mL
same,MIC,[2]; [8],16 µg/mL
same,clinical category (CLSI breakpoint),[2]; strain Pa46,R
same,clinical category (CLSI breakpoint),[2]; strain Pa54,R
same,clinical category (CLSI breakpoint),[2]; strain Pa1016,R
colistin,clinical category (CLSI breakpoint),[2]; strain Pa46,S
same,susceptibility,[2]; strain Pa46,susceptible
same,MIC,"[2]; strain Pa46 (ST111, XDR, VIM-2)",0.5 µg/mL
same,clinical category (CLSI breakpoint),[2]; strain Pa54,S
same,susceptibility,[2]; strain Pa54,susceptible
same,MIC,"[2]; strain Pa54 (ST111, XDR, VIM-2)",0.5 µg/mL
same,clinical category (CLSI breakpoint),[2]; strain Pa1016,S
same,susceptibility,[2]; strain Pa1016,susceptible
same,MIC,"[2]; strain Pa1016 (ST175, XDR)",1 µg/mL
same,susceptibility,[1]; strain Kp1,susceptible
same,Antibiotic susceptibility and clinical category (CLSI breakpoint),[1]; [5],S
same,susceptibility,[1]; strain Kp2,susceptible
same,Antibiotic susceptibility and clinical category (CLSI breakpoint),"[1]; strain Kp2 (XDR, CTX-M, NDM)",S
same,susceptibility,[1]; strain Kp3,susceptible
same,Antibiotic susceptibility and clinical category (CLSI breakpoint),"[1]; strain Kp3 (XDR, KPC)",S
same,susceptibility,[1]; strain Kp4,susceptible
same,Antibiotic susceptibility and clinical category (CLSI breakpoint),"[1]; strain Kp4 (XDR, AmpC)",S
same,susceptibility,[3]; strain AbII (ST103),susceptible
same,MIC values,[3]; strain Abl1 (ST103),<=0.5 mg/L
same,MIC values,[3]; strain Abl4 (ST2),<=0.5 mg/L
same,susceptibility,[3]; strain Abl4 (ST2),susceptible
same,MIC values,[3]; strain Abl4256 (ST38),0.25 µg/mL
same,MIC,P. aeruginosa; strain Pa46,0.5 to 1 µg/mL
same,MIC,P. aeruginosa; strain Pa1016,0.5 to 1 µg/mL
same,MIC,K. pneumoniea; strain Kp1,1 µg/mL
same,MIC,K. pneumoniea; strain Kp4,0.125 to 0.25 µg/mL
same,MIC,A. baumannii; strain Ab4256,0.25 µg/mL
same,MIC,A. baumannii; strain Abl4,1 µg/mL
same,MIC,[4]; strain MRSA15,>128 µg/mL
same,MIC,S. epidermidis; strain SE14,32 to 64 µg/mL
same,MIC,S. epidermidis; strain SE94,32 µg/mL
gentamicin,Antibiotic susceptibility and clinical category (CLSI breakpoint),[1]; [5],R
same,Antibiotic susceptibility and clinical category (CLSI breakpoint),"[1]; strain Kp2 (XDR, CTX-M, NDM)",R
same,susceptibility,[1]; strain Kp3,susceptible
same,Antibiotic susceptibility and clinical category (CLSI breakpoint),"[1]; strain Kp3 (XDR, KPC)",S
same,Antibiotic susceptibility and clinical category (CLSI breakpoint),"[1]; strain Kp4 (XDR, AmpC)",R
same,MIC values,[3]; strain Abl1 (ST103),>=16 mg/L
same,MIC values,[3]; strain Abl4 (ST2),4 µg/mL
same,MIC values,[3]; strain Abl4256 (ST38),>8 µg/mL
